In patent US20100093847A1, “ANTI-OBESITY ACTIVE AGENT AND ANTI-OBESITY METHOD” (priority 2005, published 2010):

What was measured:
KK-Ay mice = assay: Animal experiments: KK-Ay mice fed feed containing fucoxanthinol; assay type: in vivo
Experimental: Animals and Feed: For the animal experiments, KK-Ay mice (female; 3-week-old) were used. Feed for the experiments was prepared in accordance with AIN-93G composition (formulation). Amount of lipid in the feed was 13.5%. In the case where fucoxanthinol was added, 0.2% of the lipid in the feed was replaced with fucoxanthinol. After the preparation, the feed was immediately vacuum-packed and stored at −20° C. or lower until feeding.
Breeding and Analysis: Preliminary Breeding was conducted for a week using the feed for the control group, and individuals which grew with no problem were divided into groups each consisting of 6 mice in such a manner that there were no substantial unevennesses in body weight among the groups. With respect to each of the groups, two mice were housed and bred in each plastic cage spread with sterilized wood chips to cover the floor. In the breeding cage, temperature and humidity were kept at 23±1° C. and 50%, respectively, and each of light and dark periods was 12 hours. The mice were allowed to freely take (ingest) the feed and water, and the breeding with each of the feeds for the experiments was carried out for 24 days.
After termination of the feeding period, the mice were fasted for 12 hours. Thereafter, blood samples were collected from neck vessels in the presence of EDTA under anesthesia with (ethyl) ether. After the collection of blood samples, organs were immediately harvested and washed well with physiological saline to sufficiently clear blood therefrom. Livers were weighed and then stored at −40° C. or lower until subjected to analyses. Leptin concentrations and blood-sugar levels in blood were measured using a commercially available kit.

[1] = system: GPDH (glycerol-3-phosphate-dehydrogenase); assay: Measurement of GPDH activity in differentiating 3T3-L1 preadipocytes; assay type: cell-based; conditions: FIG. 5; compared with no addition
Experimental: (§1) Cell Culture: 3T3-L1 preadipocytes were incubated using DMRM culture medium containing 10% (by volume) of FBS at 37° C. in the presence of CO2 (5%). In this connection, as the FBS, one which had been inactivated at 56° C. for 30 minutes was used. As the cells, those which were unused (naïve) and which had been kept in liquid nitrogen were used in each experiment. On a 96 well microplate, 5×10^4 cells of the 3T3-L1 preadipocytes were seeded per well and pre-incubated for 48 hours.
(§2) Then, the culture medium was removed from the wells, and DMEM culture medium containing insulin (10 μg/ml), dexametazone (0.25 μg/ml) and IBMX (0.5 mM) was added to the wells, and incubation was further performed for 48 hours. Thereafter, differentiation to adipocytes was induce while repeating medium replacement at intervals of 4 days with the use of DMEM culture medium containing 5 μg/ml of insulin only. In this procedure, fucoxanthin was added to the culture medium to examine influence thereof on the differentiation induction.
Measurement of GPDH Activity: For measurement of GPDH (glycerol-3-phosphate-dehydrogenase) activity, a GDP H activity measuring kit (manufactured by Hokudo Co., Ltd.) was used. Specifically, 3T3-L1 preadipocytes were pre-incubated on a 24 well microplate) for 48 hours, and then differentiation to adipocytes was induced in the same manner as described above. […]

3T3-L1 preadipocytes = assay: Quantitative determination of intracellular lipids with Oilred O during differentiation of 3T3-L1 preadipocytes to adipocytes; assay type: cell-based; conditions: FIG. 3 and FIG. 4; added to culture medium during differentiation induction
Experimental: as §1
as §2, with “In this procedure, fucoxanthin was added to the culture medium to examine influence thereof on the differentiation induction.” left out
Quantitative Determination of Intracellular Lipids with Oilred O: The cells incubated in the 96 well microplate were immobilized with formalin, and then an oilred O solution was added thereto to stain lipids in the cells. […] Subsequently, isopropanol was added to each of the wells to elute the pigment (colorant), and absorbance, i.e., optical density at 490 nm was measured using a microplate reader.

[2] = system: large intestine cancer cells; conditions: according to Non-Patent Document 1; cited from earlier work
adipocytes (fat cells) = conditions: according to Non-Patent Document 2; cited from earlier work
[3] = 24 days feeding, versus control group
[4] = after 24 days feeding, versus control group

Compound | weight of visceral fat per 100 g of body weight (KK-Ay mice; FIG. 6, 0.2% of feed lipid replaced, 24 days, versus control group) | leptin concentration in blood (KK-Ay mice; FIG. 7, 24 days feeding, versus control group) | blood sugar level (KK-Ay mice; FIG. 8, 24 days feeding, versus control group) | relative GPDH activity (relative amount of adipocytes, preadipocytes = 1) [1] | fat (lipid) accumulation associated with differentiation of 3T3-L1 preadipocytes to adipocytes (optical density at 490 nm, Oilred O) (3T3-L1 preadipocytes) | antiproliferative activity / proliferation of large intestine cancer cells [2] | amount of feed intake (KK-Ay mice; [3]) | increase in body weight (KK-Ay mice; [3]) | weight of hepatic lipid (KK-Ay mice; [4]) | weight of liver (KK-Ay mice; [4]) | weight of small intestine (KK-Ay mice; [4]) | abnormalities in feed intake, glossiness of hair or action (KK-Ay mice; breeding period) | differentiation suppressing activity on adipocytes (adipocytes (fat cells))
C\C(C=C=C1C(C)(C)C[C@H](O)C[C@@]1(C)O)=C/C=C/C(C)=C/C=C/C=C(C)/C=C/C=C(\C)C(=O)C[C@@]12O[C@]1(C)C[C@@H](O)CC2(C)C [fucoxanthinol] | significantly reduced | significantly reduced | reduced | lowered | markedly controlled | – | – | – | – | – | – | – | –
fucoxanthin | – | – | – | no significant differences | apparently lower than that of fucoxanthinol | far stronger antiproliferative activity than that of troglytazone | no significant differences | no significant differences | no significant differences | no significant differences | no significant differences | no abnormalities | has differentiation suppressing activity on adipocytes
